From PMC4368788, “Depsides: Lichen Metabolites Active against Hepatitis C Virus” (PLoS ONE, 2015)
“Also recorded” adds a separate entry of the source. Like-named read-outs stand apart in the source and are kept apart here.

Key:
HCVcc [1] = assay: Targeted stage of HCV life cycle: compounds present during inoculation (I), replication (R) or both (I/R), luciferase readout; format: cell-based, hepatitis C virus; details: for Inhibition profile / step of HCV lifecycle targeted: compounds present during I (17 h), R (30 h) or I/R
Description: (§1) An experimental procedure was designed to determine the inhibitor class (entry or replication) to which compounds 1, 5 and 6 belonged. HCVcc were added to the cell culture during a limited time window (around 17 h). The cells were then washed to eliminate viruses from the inoculum and viral replication was allowed to take place for an additional 30 h. The selected compounds were present in the culture medium during inoculation (I), replication (R), or both these phases (inoculation and replication, I/R). […] In terms of antiviral activity, we expected to obtain two inhibition profiles for the luminescence signal, depending on the step of the viral lifecycle targeted by the drug (Fig. 4B). […] The inhibitory effect on the establishment of replication (R conditions) observed at high doses was probably due principally to the inhibition of new infection cycles initiated by virions produced by cells infected with the inoculum. A different profile was obtained for telaprevir. […] Its presence in the medium from inoculation onwards prevented the priming of the infection process at the viral polyprotein maturation step, which normally takes place after the translation of the HCV genome issued from the infecting virus. This maturation step is also repeated during the replication phase, for amplification of the viral genome and virion assembly. It is therefore not surprising that inhibition was strongest when telaprevir was present throughout the viral lifecycle (I/R), as there was probably an additive effect. […] The chemical group in this position seems to influence not only the potency of the molecule, but also its mechanism of action. Further studies are required to identify the processes involved because, for example, we cannot rule out a role in the inhibition of viral entry for compounds 5 and 6, even though they appeared to act as replication inhibitors in this experiment. It could be hypothesized that the replacement of a methyl or hydroxymethyl by an aldehyde group in position C-3 would lead to a loss of replication inhibition, but maintenance of the ability to inhibit viral entry.
(§2) Fig 4 Effects of compounds 1, 5 and 6 on cell viability and HCV propagation in vitro. One day after seeding at 50,000 cells/cm^2, Huh-7.5.1 cells were infected with HCVcc at a MOI ~ 0.03 for 17 h (inoculation phase: I). The inoculum was removed and cell cultures were washed before the addition of new medium and incubation for an additional 30 h (replication phase: R). Compounds were present at various concentrations either during both phases (I/R: black circles and solid lines) or during only one phase (I: black squares and dotted lines; R: black triangles and dashed lines). (A) Cell viability and (B) viral replication were assessed at the end of the incubation period. Results are expressed as percentages (mean ± SEM; n = 3) of the mean values obtained for the respective control cultures, in which cells were incubated with vehicle (0.1% DMSO) alone.

HCVcc [2] = assay: Anti-HCV activity: HCVcc expressing Renilla luciferase in Huh-7.5.1 cells, luciferase readout; format: cell-based, hepatitis C virus; details: for IC50: Hepatitis C virus, Huh-7.5.1 cells infected with HCVcc, 1 h preincubation then 48 h with virus, mean ± SEM, three experiments; for Anti-HCV activity: HCVcc in Huh-7.5.1 cells, up to 100 μM
Description: Huh-7.5.1 cells were maintained in Dulbecco's modified Eagle's medium (DMEM) containing 4.5 g/l D-glucose, 4 mM L-glutamine (Life Technologies), supplemented with 100 units/mL penicillin (Life Technologies), 100 μg/mL streptomycin (Life Technologies), non-essential amino acids (Sigma-Aldrich), 1 mM Hepes (Life Technologies) and 10% heat-inactivated fetal calf serum (FCS, Hyclone). […] In cell viability and HCV in vitro propagation experiments, the final concentration of DMSO was systematically adjusted to 0.1%. We checked that this amount of DMSO had no effect on the biological cycle of HCVcc in vitro (data not shown).
(§3) HCVcc was generated from the FL-J6/JFH-5’C19Rluc2AUbi construct, a monocistronic, full-length HCV genome that expresses Renilla luciferase. It was produced and titrated as described elsewhere, except for the readout for luciferase activity measurement. Cell viability was evaluated with the Cell Proliferation Reagent WST-1 (Roche), according to the manufacturer’s instructions. Luciferase assays were performed according to the manufacturer’s instructions (Promega) and measurements were performed on a Centro XS3 LB960 luminometer (Berthold Technologies).
(§4) Cell viability and viral replication data from at least three independent experiments were analyzed. The IC50 values of the compounds were determined from dose-response curves generated with seven to 12 concentrations of each compound. Curves were fitted to the data points by nonlinear regression analysis and IC50 values were interpolated from the resulting curves with GraphPad Prism 5.00 software.
We evaluated the anti-HCV activity of the 10 atranorin-related compounds, using a virus grown in cell culture (HCVcc) with a modification of its genome resulting in expression of the Renilla luciferase reporter gene. […] These two compounds are known to interfere with the entry and replication steps of viral cycle, respectively. The maximum dose of each tested compound was 100 μM, because most of these molecules became insoluble in aqueous solution at higher concentrations. The first experimental procedure used involved the preincubation of human hepatic Huh-7.5.1 cells for 1 h with various doses of the molecules. The cells were then cultured in the presence of both the molecules tested and the virus, for an additional 48 h. At the end of the incubation period, we assessed cell viability and viral replication. This protocol made it possible to test the effects of molecules on both virus entry and replication. […] Remarkably, compound 6 tended to give a slightly, but reproducibly higher viability signal when used at high doses, with a peak at about 50 μM. […] At concentrations greater than 50 μM, cytotoxic effects emerged, as shown by the decrease of the viability signal.

in vitro = format: cell-based, human; details: human, mean ± SEM; for viability at 48 h, 10 µM: 10 μM (controls); for CC50 at 48 h: half-maximal cytotoxicity concentration, Huh-7.5.1 cells, maximum dose tested 100 μM; for viability at 48 h, 50 µM / viability at 48 h, 100 µM: percentage of vehicle (0.1% DMSO) control
Description: (§5) Huh-7.5.1 cells were maintained in Dulbecco's modified Eagle's medium (DMEM) containing 4.5 g/l D-glucose, 4 mM L-glutamine (Life Technologies), supplemented with 100 units/mL penicillin (Life Technologies), 100 μg/mL streptomycin (Life Technologies), non-essential amino acids (Sigma-Aldrich), 1 mM Hepes (Life Technologies) and 10% heat-inactivated fetal calf serum (FCS, Hyclone). […] In cell viability and HCV in vitro propagation experiments, the final concentration of DMSO was systematically adjusted to 0.1%.
as §3, §4
(§6) We evaluated the anti-HCV activity of the 10 atranorin-related compounds, using a virus grown in cell culture (HCVcc) with a modification of its genome resulting in expression of the Renilla luciferase reporter gene. […] These two compounds are known to interfere with the entry and replication steps of viral cycle, respectively. […] The first experimental procedure used involved the preincubation of human hepatic Huh-7.5.1 cells for 1 h with various doses of the molecules. The cells were then cultured in the presence of both the molecules tested and the virus, for an additional 48 h. At the end of the incubation period, we assessed cell viability and viral replication. This protocol made it possible to test the effects of molecules on both virus entry and replication.

[3] = Stability of the molecule in solution; format: physicochemical; details: even if dissolved immediately before use
Huh-7.5.1 cells [4] = assay: in vitro; format: cell-based, human; details: for Effect on cell viability signal: high doses, up to 100 μM
Description: as §5, §3, §4, §6

Huh-7.5.1 cells [5] = assay: Cell viability in the inoculation/replication (I, R, I/R) procedure; format: cell-based, human
Description: as §1
as §2, with “Compounds were present at various concentrations either during both phases (I/R: black circles and solid lines) or during only one phase (I: black squares and dotted lines; R: black triangles and dashed lines).” left out

[6] = percentage of vehicle control, n = 3

CCC[C@H](NC(=O)[C@@H]1[C@H]2CCC[C@H]2CN1C(=O)[C@@H](NC(=O)[C@@H](NC(=O)c1cnccn1)C1CCCCC1)C(C)(C)C)C(=O)C(=O)NC1CC1 [Telaprevir, telaprevir, reference compound]
Inhibition profile / step of HCV lifecycle targeted (HCVcc [1]): inhibitory action regardless of the experimental conditions (I or R)
IC50 (HCVcc [2]): 0.18 ± 0.02 µM
viability at 48 h, 5 µM (in vitro; 5 μM (controls), percentage of vehicle control, n = 3): 101.9 ± 0.9%
viability at 48 h, 10 µM (in vitro; [6]): 94.1 ± 4%

COC(=O)c1c(C)cc(OC(=O)c2c(C)cc(O)c(/C=C/C(C)=O)c2O)c(C)c1O [Compound 2, (E)-[3-hydroxy-4-(methoxycarbonyl)-2,5-dimethylphenyl]-2,4-dihydroxy-6-methyl-3-(3-oxobut-1-en-yl) benzoate]
IC50 (HCVcc [2]): 64.5 ± 26.5 µM
melting point: 234 to 236 °C (dec.)
Stability in solution [3]: instability of the molecule in solution
CC50 at 48 h (in vitro): > 100 µM
viability at 48 h, 50 µM (in vitro; n = 3): 110 ± 5.9%
viability at 48 h, 100 µM (in vitro; n = 3): 107 ± 5.7%

COC(=O)c1c(C)cc(OC(=O)c2c(C)cc(O)c(C(=O)O)c2O)c(C)c1O [Compound 4, cladonioidesin]
Anti-HCV activity (HCVcc [2]): inactive
IC50 (HCVcc [2]): > 100 µM
CC50 at 48 h (in vitro): > 100 µM
viability at 48 h, 50 µM (in vitro; n = 3): 104 ± 2.5%
viability at 48 h, 100 µM (in vitro; n = 3): 90.4 ± 3.4%
Effect on cell viability signal (Huh-7.5.1 cells [4]; 48 h): minimal loss of signal

COC(=O)c1c(C)cc(OC(=O)c2c(C)cc(O)cc2O)c(C)c1O [Compound 3, methyl-3’-methyllecanorate]
IC50 (HCVcc [2]): 25.4 ± 1.7 µM
SI (selectivity index) (HCVcc [2]; ratio of CC50 to IC50): 3.2
CC50 at 48 h (in vitro): 82 µM
viability at 48 h, 50 µM (in vitro; n = 3): 52.7 ± 0.6%
viability at 48 h, 100 µM (in vitro; n = 3): 63.1 ± 2.9%
CC50 (Huh-7.5.1 cells [4]; half-maximal cytotoxicity concentration, Huh-7.5.1 cells, 48 h, mean ± SEM, maximum dose tested 100 μM): 81.9 ± 13.6 µM

Cc1cc(O)c(C=O)c(O)c1 [Compound 9, atranol]
IC50 (HCVcc [2]): 40.3 ± 0.6 µM
CC50 at 48 h (in vitro): > 100 µM
viability at 48 h, 50 µM (in vitro; n = 3): 91.1 ± 3.5%
viability at 48 h, 100 µM (in vitro; n = 3): 78.7 ± 2.3%
Effect on cell viability signal (Huh-7.5.1 cells [4]; 48 h): minimal loss of signal

COC(=O)c1c(C)cc(O)cc1O [Compound 8, methyl orsellinate]
Anti-HCV activity (HCVcc [2]): inactive
IC50 (HCVcc [2]): ≥ 100 µM
CC50 at 48 h (in vitro): > 100 µM
viability at 48 h, 50 µM (in vitro; n = 3): 106 ± 2.9%
viability at 48 h, 100 µM (in vitro; n = 3): 93.4 ± 4.2%
Effect on cell viability signal (Huh-7.5.1 cells [4]; 48 h): minimal loss of signal

COC(=O)c1c(C)cc(OC(=O)c2c(C)cc(O)c(C)c2O)c(C)c1O [Compound 6, Methyl-4-O-demethylbarbatate]
Inhibition profile / step of HCV lifecycle targeted (HCVcc [1]): interfered with viral replication; also recorded: profiles typical of replication inhibitors
IC50 (HCVcc [2]): 13.3 ± 1.6 µM
Cytotoxicity at 100 μM (Huh-7.5.1 cells [5]; 100 μM, except in R conditions): induced some cytotoxicity
CC50 at 48 h (in vitro): > 100 µM
viability at 48 h, 50 µM (in vitro; n = 3): 145 ± 3.2%
viability at 48 h, 100 µM (in vitro; n = 3): 81.6 ± 20.6%
Concentration above which cytotoxic effects emerged (Huh-7.5.1 cells [4]; decrease of the viability signal): greater than 50 μM
Concentration of the peak of the higher viability signal (Huh-7.5.1 cells [4]; slightly higher viability signal at high doses, modest stimulation of cell proliferation): about 50 μM

C#Cc1cccc(Nc2ncnc3cc(OCCOC)c(OCCOC)cc23)c1 [Erlotinib, erlotinib, reference compound]
Inhibition profile / step of HCV lifecycle targeted (HCVcc [1]): most efficient if present at least during the initial interaction between cells and viruses
IC50 (HCVcc [2]): 0.64 ± 0.18 µM
Effect on cell viability (Huh-7.5.1 cells [5]): small anti-proliferative effect
viability at 48 h, 10 µM (in vitro; [6]): 86.5 ± 5.1%

COC(=O)c1c(C)cc(O)c(C)c1O [Compound 7, methyl-2,4-dihydroxy-3,6-dimethylbenzoate]
IC50 (HCVcc [2]): 50.6 ± 5 µM
CC50 at 48 h (in vitro): > 100 µM
viability at 48 h, 50 µM (in vitro; n = 3): 101 ± 5.6%
viability at 48 h, 100 µM (in vitro; n = 3): 97.3 ± 6.2%

COC(=O)c1c(C)cc(OC(=O)c2c(C)cc(O)c(C=O)c2O)c(C)c1O [Compound 1, atranorin]
Inhibitory effect when present only during inoculation (HCVcc [1]; I condition only, up to 100 μM): no inhibitory effect
Inhibition profile / step of HCV lifecycle targeted (HCVcc [1]): inhibited only viral entry; also recorded: effects similar to those of erlotinib
IC50 (HCVcc [2]): 22.3 ± 8 µM
Effect on cell viability (Huh-7.5.1 cells [5]; regardless of incubation conditions (I, R, I/R)): no effect on cell viability
CC50 at 48 h (in vitro): > 100 µM
viability at 48 h, 50 µM (in vitro; n = 3): 95.9 ± 4.5%
viability at 48 h, 100 µM (in vitro; n = 3): 91.8 ± 5.9%
Effect on cell viability signal (Huh-7.5.1 cells [4]; 48 h): minimal loss of signal

COC(=O)c1c(C)cc(O)c(C=O)c1O [Compound 10, methyl haematommate]
IC50 (HCVcc [2]): 55.5 ± 7.9 µM
CC50 at 48 h (in vitro): > 100 µM
viability at 48 h, 50 µM (in vitro; n = 3): 88.1 ± 5.5%
viability at 48 h, 100 µM (in vitro; n = 3): 72.2 ± 2%
Effect on cell viability signal (Huh-7.5.1 cells [4]; 48 h): minimal loss of signal
